# According to patent publication US9034891B2, “Bicyclic heterocyclic spiro compounds” (ISRAEL INSTITUTE FOR BIOLOGICAL RESEARCH, priority 2009, dated 2015):
# Assays:
# [1] = target: T1, M1 mAChR (Homo sapiens, UniProt P11229); assay: Intracellular Ca2+ mobilization (Fluo-4 NW) in cells stably transfected with M1 mAChR; assay type: cell-based; set-up: expressed in transfected cells; details: for M1 agonist at 100 μM vs. carbachol (full muscarinic agonist, 100%): mobilization of intracellular Ca ions; for Kd: read-out: Effects on M1 mAChR: antagonist, Kd; for activity at 100 µM: remaining carbachol-induced effect, read-out: Antagonist at 100 μM on M1 mAChR inhibiting carbachol-induced effects from 100% to
# T1 sequence (P11229 1-460): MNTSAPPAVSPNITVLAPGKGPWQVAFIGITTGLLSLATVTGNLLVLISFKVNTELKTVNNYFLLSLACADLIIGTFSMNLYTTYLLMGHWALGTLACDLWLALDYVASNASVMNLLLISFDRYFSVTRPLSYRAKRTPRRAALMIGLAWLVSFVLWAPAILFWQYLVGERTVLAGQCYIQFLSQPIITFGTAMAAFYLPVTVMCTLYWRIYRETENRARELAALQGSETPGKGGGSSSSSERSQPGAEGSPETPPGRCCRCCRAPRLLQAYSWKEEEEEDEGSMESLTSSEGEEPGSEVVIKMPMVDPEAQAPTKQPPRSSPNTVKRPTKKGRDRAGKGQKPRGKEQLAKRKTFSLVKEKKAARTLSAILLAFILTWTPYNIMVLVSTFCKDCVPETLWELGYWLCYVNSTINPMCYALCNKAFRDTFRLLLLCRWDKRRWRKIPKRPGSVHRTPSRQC
# From the text: On the day of experiment, cells were fully confluent.
# To evaluate selectivity for a subtype of mAChR, in particular the M1 mAChR vs. M3 and MS mAChR, the assays were calibrated using ligands that have a combined activity, e.g. M1 agonistic and M3 antagonistic or M1 agonistic and MS antagonistic profiles, respectively. This can eliminate effects due to different receptor reserves in cell-based assays.
# [2] = system: Wistar rats; assay: Passive avoidance, trihexyphenidyl-induced memory impairment in rats; assay type: in vivo, rat; details: NE-100 1 mg/kg alone
# From the text: (§1) Trihexyphenidyl is a selective M1 muscarinic antagonist that crosses the blood brain barrier and induces memory and learning impairments (Bymaster et al., J Pharmacol Exp. Ther. 267: 16-24, 1993; Roldan et al., Neurosci. Lett. 230: 93-96, 1997; Kimura et al., Brain Res. 834: 6-12, 1999). […] Naive Wistar rats were used in the experiments below. The passive avoidance (PA) task consists of a training (acquisition) phase and a retention phase. In the training procedure each rat was individually placed in the small illuminated compartment and after 60 s. of familiarization/adaptation, the door to the large compartment was opened and the latency to enter was measured (Initial Latency) Immediately following entry into the dark compartment, the door was closed and inescapable foot shock (0.6 mA for 3 s) was delivered through the grid floor. […] After the acquisition trial the rat was returned to its home cage. Retention of the passive avoidance task was measured 24 h later, by again placing the rat in the light compartment and after a 60 s adaptation interval, the door was opened and the latency to re-enter the dark compartment was measured. […] Two separate experiments were conducted. […] In both experiments the rats were divided into 2 groups. One main group was treated with trihexyphenidyl (5 mg/kg, s.c) and the second main group was treated with vehicle (DDW-1 ml/kg, s.c.), 30 min before the shock.
# In a further extension of these studies, retention of the passive avoidance task was measured 72 h later, by again placing the rat in the light compartment and after a 60 s adaptation interval, the door was opened and the latency to re-enter the dark compartment was measured. A cutoff point of 600 s was used for retention latency. […] Rats were divided into 2 groups. One group (N=30) was treated with trihexyphenidyl (5 mg/kg, s.c) and the second group (N=29) was treated with vehicle (DDW-1 ml/kg, s.c.), 30 min before the shock.
# [3] = system: PC12M1 cells; assay: Mitochondrial apoptosis pathway, Bax and Bcl-2 immunoreactivity in PC12M1 cells
# Description: These cells were partially differentiated (2-3 days), as observed under microscope. […] The pellet (rich mitochondrial fraction) was re-suspended with 200 μl Ripa buffer and lysed by rapid passage through a syringe needle (23G) for five to six times. The lysate was then used for further evaluation.
# Bands were probed using the Rabbit Bax antibody (1:1000, Cell signaling, Cat. No. 2772) and Rabbit Bcl-2 antibody (1:1000, Cell signaling, Cat. No. 2870) followed by anti rabbit IgG (H&L) HRP (1:5,000, Jackson Immuno Research, 111-035-144).
# [4] = system: rats; assay: Passive avoidance, MK-801-induced impairment in rats; assay type: in vivo, rat; details: sc, retention 24 h later
# From the text: as §1
# MK-801 is an NMDA antagonist that induces cognitive behavioral impairments in rodents. […] In the first experiment (dose-finding study of MK-801) rats were divided into 4 groups. Three groups (N=27) were treated with MK-801 (50, 80 or 100 μg/kg, s.c) and the fourth group (N=10) was treated with vehicle (saline-1 ml/kg, s.c.), 30 min before the shock. […] One group (N=80) was treated with MK-801 (80 μg/kg, s.c) and the second group (N=59) was treated with the vehicle (saline-1 ml/kg, s.c.).
# [5] = target: T1, M1 mAChR; assay: αAPPs secretion in CHO cells double transfected with human APP695 and human M1 mAChR; assay type: cell-based; details: doubly-transfected CHO cells; AF710B at 0.01 μM, AF710 at 0.1 μM, AF710A at 1 μM
# Description: α-APPs Secretion studies following incubation with the tested compounds were performed as described in Haring, et al. J. Neurochem., 1998, 71:2094-103. […] A day later, cells were washed twice with serum free media, and treated with the test compound at various concentrations ranging from 0.1 nM to 100 μM. […] After 1 hour the conditioned medium was collected to cold Eppendorf tubes, which included a protease inhibitor cocktail (0.1 mM phenylmethylsulphonyl fluoride (PMSF); 5 μg/ml leupeptin; 5 μg/ml pepstatin and 5 units/ml aprotinin) for determining αAPPs release. The protein content of each sample was concentrated using Centricon tubes (Amicon, Beverly, Mass.). […] CHO cells double transfected with human APP695 and M1 mAChR APPs bands were probed using anti-amyloid beta protein (1:1000, monoclonal 6E10 antibody, MAB1560, Chemicon) and peroxidase-linked rabbit anti mouse IgG (1:5,000; Jackson Immuno Research, PA). PC12 cells stably transfected with M1 mAChR APPs bands were probed using the anti-Alzheimer precursor protein A4 (1:4,000; monoclonal 22C11 antibody, Boehringer Mannheim) and the peroxidase-linked rabbit anti mouse IgG (1:20,000; Jackson Immuno Research, PA). Following extensive washout, the membranes were treated with Western Lightning Chemiluminescence Reagent Plus (PerkinElmer Life Sciences, MA) followed by exposure to SuperRX film (Fuji Medical X-ray film, Tokyo, Japan). Quantitative determination of the total APPs bands was performed by Scion Image program (NIH, Bethesda, USA). Samples of control and CCh were assayed in parallel and thus enabled compilation of data from separate experiments.
smiles,measurement,setting,value
"CC1OC2(CCN(C)CC2)CC1NC(=O)CCc1c[nH]c2ccccc12 (single isomer, unassigned) [AF730 II]","M1 agonist at 100 μM vs. carbachol (full muscarinic agonist, 100%)",[1],36%
"CCCN(CCC)CCc1ccc(OC)c(OCCc2ccccc2)c1 [NE-100, reference compound]","inducing deficits in the PA task, alone",[2],not significantly effective
same,effect of sigma-1 antagonist on AF710B-mediated decrease of Bax elevation,[3]; NGF deprivation,blocked these AF710B-mediated effects
"CC1OC2(CCN(C)CC2)CN1S(=O)(=O)c1ccc(F)cc1 (centres unmarked) [AF715, 3-(4-fluorobenzenesulfonyl)-2,8-dimethyl-1-oxa-3,8-diazaspiro[4.5]-decane]",Kd,[1],2.5 µM
"CC1OC2(CCN(C)CC2)CN1C(=O)CCc1c[nH]c2ccccc12 (single isomer, unassigned) [AF711B]",Kd,[1],42 µM
"CC1CN(C(=O)CCc2c[nH]c3ccccc23)C2(CCN(C)CC2)O1 (centres unmarked) [AF706, 1-(2,8-dimethyl-1-oxa-4,8-diazaspiro[4.5]dec-4-yl)-3-(1H-indol-3-yl)-propan-1-one]",Kd,[1],39.7 µM
"CC1OC2(CCN(C)CC2)C2C1N2S(=O)(=O)c1ccc(F)cc1 (centres unmarked) [AF721, 1′,4-dimethyl-6-[3-(4-fluorobenzenesulfonyl)]-spiro-(3-oxa-6-aza-bicyclo[3.1.0]hexane-2,4′-piperidine)]","M1 agonist at 100 μM vs. carbachol (full muscarinic agonist, 100%)",[1],13%
"CC1OC2(CCN(C)CC2)C/C1=N\OC(=O)CCc1c[nH]c2ccccc12 (centres unmarked) [AF733, (3E)-2,8-dimethyl-1-oxa-8-azaspiro[4.5]decan-3-one-O—[3-(1H-indol-3-yl)propanoyl]oxime]","M1 agonist at 100 μM vs. carbachol (full muscarinic agonist, 100%)",[1],90%
"CC1OC2(CCN(C)CC2)CN1C(=O)CCc1c[nH]c2ccccc12 (single isomer, unassigned) [AF711A]","M1 agonist at 100 μM vs. carbachol (full muscarinic agonist, 100%)",[1],45%
"CC1OC2(CCN(C)CC2)CC1NC(=O)CCc1c[nH]c2ccccc12 (single isomer, unassigned) [AF730, N-(2,8-dimethyl-1-oxa-8-aza-spiro[4.5]dec-3-yl)-3-(1H-indol-3-yl)-propionamide]","M1 agonist at 100 μM vs. carbachol (full muscarinic agonist, 100%)",[1],40%
"CC1SC2(CCN(C)CC2)CN1C(=O)c1cc(C(C)(C)C)c(O)c(C(C)(C)C)c1 (centres unmarked) [AF723, (3,5-di-tert-butyl-4-hydroxy-phenyl)-(2,8-dimethyl-1-thia-3,8-diaza-spiro[4.5]dec-3-yl)-methanone]",activity at 100 µM,[1],< 50%
"CC1CN(S(=O)(=O)c2ccc(F)cc2)C2(CCN(C)CC2)O1 (centres unmarked) [AF714, 4-(4-fluoro-benzenesulfonyl)-2,8-dimethyl-1-oxa-4,8-diaza-spiro[4.5]-decane]",Kd,[1],9.7 µM
"CCCC(CCC)C(=O)N1CC2(CCN(C)CC2)OC1C (centres unmarked) [AF712, 1-(2,8-dimethyl-1-oxa-3,8-diaza-spiro[4.5]dec-3-yl)-2-propyl-pentan-1-one]",Kd,[1],22.6 µM
"CCC(=O)N1CC2(CCN(C)CC2)SC1C (centres unmarked) [AF724, 1-(2,8-dimethyl-1-thia-3,8-diaza-spiro[4.5]dec-3-yl)-propan-1-one]",activity at 100 µM,[1],< 50%
"CC1SC2(CCN(C)CC2)CN1S(=O)(=O)c1ccc(F)cc1 (centres unmarked) [AF716, 3-(4-fluorobenzenesulfonyl)-2,8-dimethyl-1-thia-3,8-diazaspiro[4.5]-decane]",Kd,[1],7.7 µM
CC1SC2(CCN(C)CC2)CN1C(=O)Cc1c[nH]c2ccccc12 (centres unmarked) [AF726],Kd,[1],84.7 µM
"CC1OC2(CCN(C)CC2)C2C1N2C(=O)CCc1c[nH]c2ccccc12 (centres unmarked) [AF718C, 1′,4-dimethyl-6-(3-indolpropionyl)-spiro-(3-oxa-6-aza-bicyclo[3.1.0]-hexane-2,4′-piperidine)]","M1 agonist at 100 μM vs. carbachol (full muscarinic agonist, 100%)",[1],43%
"C[N+](C)(C)CCOC(N)=O [carbachol, reference compound]",Aβ 25-35 induced neurotoxicity expressed as Bax/Bcl2,"[3]; PC12M1 cells, 1 μM",29%±11
"C[C@]12N[C@H](Cc3ccccc31)c1ccccc12 [MK-801, reference compound]","retention performance, dose-finding",[4]; 50 μg/kg,ineffective
same,"retention performance, dose-finding",[4]; 80 and 100 μg/kg,impaired retention performance
CC1SC2(CCN(C)CC2)CN1C(=O)CCCc1c[nH]c2ccccc12 (centres unmarked) [AF725],activity at 100 µM,[1],< 50%
"CC1SC2(CCN(C)CC2)CN1C(=O)/C=C/c1c[nH]c2ccccc12 (centres unmarked) [AF727, (E)-1-(2,8-dimethyl-1-thia-3,8-diaza-spiro[4.5]dec-3-yl)-3-(1H-indol-3-yl)-propenone]",Kd,[1],8.7 µM
"CCCC(CCC)C(=O)N1CC2(CCN(C)CC2)SC1C (centres unmarked) [AF717, 1-(2,8-dimethyl-1-thia-3,8-diazaspiro[4.5]dec-3-yl)-2-propylpentan-1-one]",activity at 100 µM,[1],< 25%
"C[C@H]1SC2(CCN(C)CC2)CN1C(=O)CCc1c[nH]c2ccccc12 (single isomer, unassigned) [AF710A]",maximal αAPPs secretion in comparison to untreated control cells,[5],125%
same,Kd,[1],31 µM
"CCCC(CCC)C(=O)N1CC(C)OC12CCN(C)CC2 (centres unmarked) [AF713, 1-(2,8-dimethyl-1-oxa-4,8-diaza-spiro[4.5]dec-4-yl)-2-propyl-pentan-1-one]",Kd,[1],113 µM
